These results are taken from patent US20240358721A1, “GASDERMIN-D INHIBITORS AND USES THEREOF FOR TREATING PULMONARY VASO-OCCLUSION” (UNIVERSITY OF PITTSBURGH-OF THE COMMONWEALTH SYSTEM OF …, priority 2021, published 2024).

Entries after “also recorded” stand apart in the source; their conditions may differ.

Assay [1] concerns SCD-Selp−/− mice. Nature of the assay: cNETs in platelet-poor plasma by Imaging Flow Cytometry, SCD-Selp−/− mice. The class given is in vivo, mouse. The conditions noted are these: IV 10 μmole/kg oxy-Hb with 10 mg/kg inhibitor vs oxy-Hb alone. As to the method: (FIG. 5A) Experimental scheme: SCD or SCD-Selp^−/− mice were IV administered 10 μmole/kg oxy-Hb (10 oxy-Hb) without or with 10 mg/kg GSDMD inhibitors LDC75591 or Disulfiram. In FIGS. 5C-5D, venous blood was processed to generate PPP and cNETs detected in PPP using Imaging Flow Cytometry. Imaging Flow Cytometry data was quantified to estimate concentration of cNETs (#cNETs/μl of plasma). In FIGS. 5B, and 5E-5F, quantitative fluorescence intravital lung microscopy (qFILM) was used to detect arrival of circulating NETs (cNETs) within the lung microcirculation. Number of cNETs entering per FOV over a 1-minute duration (#cNETs/FOV/min) were quantified. In FIGS. 5G-5J, qFILM was used to assess the absence or presence of pulmonary vaso-occlusion using the experimental strategy described in FIG. 1A. Pulmonary vaso-occlusions (PVOs) were compared between treatment groups using following two parameters: Number of PVOs per Field of View (#PVOs/FOV) and number of large PVOs (with area>1000 μm^2) per FOV. (FIG. 5B) #cNETs/FOV/min in SCD mice IV administered 10 oxy-Hb were not different from SCD-Selp^−/− mice IV administered 10 oxy-Hb. SCD IV Oxy-Hb (n=4 mice; 44 FOVs). SCD-Selp^−/− IV oxy-Hb (n=5 mice; 71 FOVs). (FIG. 5C) Plasma concentration of cNETs was not different between SCD and SCD-Selp^−/− mice (n=4 mice per group) IV administered 10 oxy-Hb. […]

The subject of assay [2] is SCD-Selp−/− mice. Description: qFILM assessment of P-selectin-independent pulmonary vaso-occlusion in SCD-Selp−/− mice IV administered oxy-Hb. The class given is in vivo, mouse. Particulars: IV 10 μmole/kg oxy-Hb with 10 mg/kg inhibitor vs oxy-Hb alone, 10 mg/kg. From the text:
Quantitative fluorescence intravital lung microscopy (qFILM) was used to assess the absence or presence of platelet-neutrophil aggregate mediated pulmonary vaso-occlusion. Pulmonary microcirculation (pseudo-colored purple), neutrophils (red) and platelets (pseudo-colored green) were labeled in vivo by IV administration of FITC dextran, AF546-anti-Ly6G Ab and V450-anti-CD49b Ab, respectively. […] White arrows denote the direction of blood flow within the pulmonary arterioles. Alveoli are marked with asterisks. Scale bars 20 μm. The diameter of pulmonary arteriole in B-E is ˜22 μm, 32 μm, 31.5 μm, and 31 μm, respectively. […] Refer Online Data Supplement for details. […] The data for mice with SCD IV administered 10 oxy-Hb (n=5 mice; 75 FOVs) are included as black bars in FIGS. 1N and 1O for relative comparison. qFILM FOV size ˜65 536 μm^2. Data represent mean ±SE and are compared using Student t test. *P<0.05 (FIG. 1P) Schematic showing the main findings of the study. The sterile inflammatory milieu (DAMPs, IFN-I signaling, and ROS) in SCD promotes caspase-4 (humans) or caspase-11 (mouse)-dependent cleavage of neutrophil GSDMD into the active form GSDMD-NT, leading to the shedding of NETs in the liver microcirculation. Once shed, these NETs are carried by the blood as cNETs to the lung, where they promote neutrophil-platelet aggregation in the pulmonary arterioles, leading to PVO and lung injury (acute chest syndrome).
SCD-Selp^−/− mice were IV administered 10 μmole/kg oxy-Hb (10 oxy-Hb) without or with 10 mg/kg GSDMD inhibitor (Disulfiram). Quantitative fluorescence intravital lung microscopy (qFILM) was used to assess the absence or presence of pulmonary vasoocclusion using the same experimental scheme described in FIG. 1A. Pulmonary vasoocclusions (PVOs) were compared between treatment groups using following two parameters: Number of PVOs per Field of View (#PVOs/FOV) and number of large PVOs (with area>1000 μm^2) per FOV. […] The data for SCD mice IV administered 10 oxy-Hb (n=5 mice; 75 FOVs) is included as black bars in FIGS. 4A and 4B for relative comparison. FOV size˜65,536 μm^2. […]
(FIG. 5A) Experimental scheme: SCD or SCD-Selp^−/− mice were IV administered 10 μmole/kg oxy-Hb (10 oxy-Hb) without or with 10 mg/kg GSDMD inhibitors LDC75591 or Disulfiram. In FIGS. 5C-5D, venous blood was processed to generate PPP and cNETs detected in PPP using Imaging Flow Cytometry. Imaging Flow Cytometry data was quantified to estimate concentration of cNETs (#cNETs/μl of plasma). In FIGS. 5B, and 5E-5F, quantitative fluorescence intravital lung microscopy (qFILM) was used to detect arrival of circulating NETs (cNETs) within the lung microcirculation. Number of cNETs entering per FOV over a 1-minute duration (#cNETs/FOV/min) were quantified. […]

As for `COc1ccccc1-c1cc2n(n1)Cc1ccc(NC(C)=O)cc1OC2` [LDC7559], the “Plasma concentration of cNETs (#cNETs/μl of plasma)” value with SCD-Selp−/− mice [1] is recorded as “significantly less”. Also, in the assay on SCD-Selp−/− mice [2], the “Number of PVOs per Field of View (#PVOs/FOV)” value is recorded as “significantly reduced; also recorded: threefold” and the “number of large PVOs (with area>1000 μm^2) per FOV” value is recorded as “absent; also recorded: absence”.
